Results as given in patent publication EP2987533B1, “7-substituted piperazin-1-yl fluoroquinolone compounds, their use in the treatment of cancer, pharmaceutical compositions and a method for preparation” (priority 2014, dated 2016).

How the values were obtained:
SK-MEL-5 = experiment: NCI five-dose SRB growth assay; type: cell-based; conditions: Homo sapiens; SK-MEL-5 (Melanoma), 48 h
SF-539 = experiment: NCI five-dose SRB growth assay; type: cell-based; conditions: Homo sapiens; SF-539 (CNS Cancer), 48 h
HCT-116 = experiment: NCI five-dose SRB growth assay; type: cell-based; conditions: Homo sapiens; HCT-116 (Colon Cancer), 48 h
[1] = system: 60 human tumor cell line panel; experiment: NCI 60 cell line one-dose SRB primary anticancer assay; type: cell-based; conditions: 60 cell lines assay in one dose, 10µM (title; head prints 10.0 mM), 48 h; for inhibition at 10 µM: Homo sapiens, read-out: MGI % (Mean growth inhibition percentage)
Method: A primary anticancer assay was performed for an approximately 60 human tumor cell line panel derived from nine neoplastic diseases, in accordance with the protocol of the Drug Evaluation Branch, National Cancer Institute, Bethesda, MD (Monks A. et al., J. Natl. Cancer Inst 1991, 83, 757-766; Boyd M.R. and Paull K.D., Drug. Dev. Res. 1995, 34, 91-109; Shoemaker R.H., Nat. Rev. Cancer 2006, 6, 813-823). Briefly, tested compounds were added to the culture at a single concentration (10^-5M), and the cultures were incubated for 48 h. End point determinations were made with a protein binding dye, sulforhodamine B (SRB). The results for each tested compound were reported as the growth percentage of the treated cells when compared to that of the untreated control cells. The percentage growth was evaluated spectrophotometrically versus controls not treated with test agents.

leukemia = experiment: NCI five-dose SRB assay, subpanel average; conditions: 48 h; for GI50 / CC50: Homo sapiens; for GI50: read-out: GI50 (median growth inhibitory); for CC50: read-out: LC50 (median lethal); for TGI (total growth inhibitory): average over leukemia subpanel, five concentrations
CNS cancer = experiment: NCI five-dose SRB assay, subpanel average; conditions: 48 h; for GI50 / CC50: Homo sapiens; for GI50: read-out: GI50 (median growth inhibitory); for CC50: read-out: LC50 (median lethal); for TGI (total growth inhibitory): average over CNS cancer subpanel, five concentrations
colon cancer = experiment: NCI five-dose SRB assay, subpanel average; conditions: 48 h; for GI50 / CC50: Homo sapiens; for GI50: read-out: GI50 (median growth inhibitory); for CC50: read-out: LC50 (median lethal); for TGI (total growth inhibitory): average over colon cancer subpanel, five concentrations
prostate cancer = experiment: NCI five-dose SRB assay, subpanel average; conditions: 48 h; for GI50 / CC50: Homo sapiens; for GI50: read-out: GI50 (median growth inhibitory); for CC50: read-out: LC50 (median lethal); for TGI (total growth inhibitory): average over prostate cancer subpanel, five concentrations
breast cancer = experiment: NCI five-dose SRB assay, subpanel average; conditions: 48 h; for GI50 / CC50: Homo sapiens; for GI50: read-out: GI50 (median growth inhibitory); for CC50: read-out: LC50 (median lethal); for TGI (total growth inhibitory): average over breast cancer subpanel, five concentrations
UACC-62 = experiment: NCI five-dose SRB growth assay; type: cell-based; conditions: Homo sapiens; UACC-62 (Melanoma), 48 h
SF-268 = experiment: NCI five-dose SRB growth assay; type: cell-based; conditions: Homo sapiens; SF-268 (CNS Cancer), 48 h
786-0 = experiment: NCI five-dose SRB growth assay; type: cell-based; conditions: Homo sapiens; 786-0 (Renal Cancer), 48 h
renal cancer = experiment: NCI five-dose SRB assay, subpanel average; conditions: 48 h; for GI50 / CC50: Homo sapiens; for GI50: read-out: GI50 (median growth inhibitory); for CC50: read-out: LC50 (median lethal); for TGI (total growth inhibitory): average over renal cancer subpanel, five concentrations
melanoma = experiment: NCI five-dose SRB assay, subpanel average; conditions: 48 h; for GI50 / CC50: Homo sapiens; for GI50: read-out: GI50 (median growth inhibitory); for CC50: read-out: LC50 (median lethal); for TGI (total growth inhibitory): average over melanoma subpanel, five concentrations
ACHN [2] = experiment: NCI five-dose SRB growth assay; type: cell-based; conditions: Homo sapiens; ACHN (Renal Cancer), 48 h
MDA-MB-435 = experiment: NCI five-dose SRB growth assay; type: cell-based; conditions: Homo sapiens; MDA-MB-435 (Melanoma), 48 h
COLO 205 = experiment: NCI five-dose SRB growth assay; type: cell-based; conditions: Homo sapiens; COLO 205 (Colon Cancer), 48 h
SN12C = experiment: NCI five-dose SRB growth assay; type: cell-based; conditions: Homo sapiens; SN12C (Renal Cancer), 48 h
ovarian cancer = experiment: NCI five-dose SRB assay, subpanel average; conditions: 48 h; for GI50 / CC50: Homo sapiens; for GI50: read-out: GI50 (median growth inhibitory); for CC50: read-out: LC50 (median lethal); for TGI (total growth inhibitory): average over ovarian cancer subpanel, five concentrations
T-47D [3] = experiment: NCI five-dose SRB growth assay; type: cell-based; conditions: Homo sapiens, T47D; T-47D (Breast Cancer), 48 h
T-47D [4] = experiment: NCI one-dose SRB growth assay; type: cell-based; conditions: Homo sapiens, T47D; T-47D (Breast Cancer), 10^-5 M, 48 h; read-out: % Growth Inhibition (GI %)
Summary of the method: (§1)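 Read-out: sulforhodamine B protein-binding dye, measured spectrophotometrically, expressed as percent growth of treated versus untreated cells. Cultures received test compound at 10^-5M and were incubated 48 h.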

MDA-MB-468 = experiment: NCI one-dose SRB growth assay; type: cell-based; conditions: Homo sapiens; MDA-MB-468 (Breast Cancer), 10^-5 M, 48 h; read-out: % Growth Inhibition (GI %)
Summary of the method: as §1

ACHN [5] = experiment: NCI one-dose SRB growth assay; type: cell-based; conditions: Homo sapiens; ACHN (Renal Cancer), 10^-5 M, 48 h; read-out: % Growth Inhibition (GI %)
Summary of the method: as §1

SK-MEL-2 = experiment: NCI one-dose SRB growth assay; type: cell-based; conditions: Homo sapiens; SK-MEL-2 (Melanoma), 10^-5 M, 48 h; read-out: % Growth Inhibition (GI %)
NCI-H322M = experiment: NCI one-dose SRB growth assay; type: cell-based; conditions: Homo sapiens; NCI-H322M (Non-Small Cell Lung Cancer), 10^-5 M, 48 h; read-out: % Growth Inhibition (GI %)
HOP-62 = experiment: NCI one-dose SRB growth assay; type: cell-based; conditions: Homo sapiens; HOP-62 (Non-Small Cell Lung Cancer), 10^-5 M, 48 h; read-out: % Growth Inhibition (GI %)
Summary of the method: as §1

HL-60(TB) = experiment: NCI one-dose SRB growth assay; type: cell-based; conditions: Homo sapiens; HL-60(TB) (Leukemia), 10^-5 M, 48 h; read-out: % Growth Inhibition (GI %)
NSC lung cancer = experiment: NCI five-dose SRB assay, subpanel average; conditions: 48 h; for GI50 / CC50: Homo sapiens; for GI50: read-out: GI50 (median growth inhibitory); for CC50: read-out: LC50 (median lethal); for TGI (total growth inhibitory): average over NSC lung cancer subpanel, five concentrations
BT-549 = experiment: NCI five-dose SRB growth assay; type: cell-based; conditions: Homo sapiens; BT-549 (Breast Cancer), 48 h

O=C(O)c1cn(C2CC2)c2cc(N3CCN(S(=O)(=O)c4ccc(Cl)c(Cl)c4)CC3)c(F)cc2c1=O [Compound 3b]
GI50 (SK-MEL-5): 2.04 µM | GI50 (SF-539): 3.39 µM | GI50 (HCT-116): 3.86 µM | PCE (Positive cytotoxic effect: ratio between number of cell lines with percentage growth inhibition from 10 to >100 and total number of cell lines) [1]: 58/58 | RGI % (Range of growth inhibition percentage) [1]: >100.0 to 46.49% | inhibition at 10 µM [1]: 89.2% | GI50 (leukemia): 3.02 µM | CC50 (leukemia): > 100 µM | TGI (total growth inhibitory) (leukemia): 62.55 µM | GI50 (CNS cancer): 3.68 µM | CC50 (CNS cancer): > 100 µM | TGI (total growth inhibitory) (CNS cancer): c (Compounds showed values > 100µM) | GI50 (colon cancer): 3.79 µM | CC50 (colon cancer): > 100 µM | TGI (total growth inhibitory) (colon cancer): 87.41 µM | GI50 (prostate cancer): 3.29 µM | CC50 (prostate cancer): > 100 µM | TGI (total growth inhibitory) (prostate cancer): c (Compounds showed values > 100µM) | GI50 (breast cancer): 3.04 µM | CC50 (breast cancer): > 100 µM | TGI (total growth inhibitory) (breast cancer): 81.37 µM | GI50 (UACC-62): 1.75 µM | GI50 (SF-268): 4.77 µM | GI50 (786-0): 4.02 µM | GI50 (renal cancer): 3.19 µM | CC50 (renal cancer): > 100 µM | TGI (total growth inhibitory) (renal cancer): 87.07 µM | GI50 (melanoma): 2.54 µM | CC50 (melanoma): 87.1 µM | TGI (total growth inhibitory) (melanoma): 52.41 µM | GI50 (ACHN [2]): 3.1 µM | GI50 (MDA-MB-435): 2.97 µM | GI50 (COLO 205): 3.5 µM | GI50 (SN12C): 2.97 µM | GI50 (ovarian cancer): 3.39 µM | CC50 (ovarian cancer): > 100 µM | TGI (total growth inhibitory) (ovarian cancer): 88.90 µM | GI50 (T-47D [3]): 3.77 µM | inhibition at 10 µM (T-47D [4]): 83.7% | inhibition at 10 µM (MDA-MB-468): > 100% | inhibition at 10 µM (ACHN [5]): 95% | inhibition at 10 µM (SK-MEL-2): > 100% | inhibition at 10 µM (NCI-H322M): 78.7% | inhibition at 10 µM (HOP-62): 84.8% | inhibition at 10 µM (HL-60(TB)): > 100% | GI50 (NSC lung cancer): 3.07 µM | CC50 (NSC lung cancer): > 100 µM | TGI (total growth inhibitory) (NSC lung cancer): 84.28 µM | GI50 (BT-549): 2.98 µM

CCn1cc(C(=O)O)c(=O)c2cc(F)c(N3CCN(S(=O)(=O)c4cccc5ccccc45)CC3)cc21 [Compound 7a]
GI50 (SK-MEL-5): 2.24 µM | GI50 (SF-539): 2.43 µM | GI50 (HCT-116): 3.88 µM | PCE (Positive cytotoxic effect: ratio between number of cell lines with percentage growth inhibition from 10 to >100 and total number of cell lines) [1]: 58/58 | RGI % (Range of growth inhibition percentage) [1]: >100.0 to 40.83% | inhibition at 10 µM [1]: 93.8% | GI50 (leukemia): 3.48 µM | CC50 (leukemia): > 100 µM | TGI (total growth inhibitory) (leukemia): 63.22 µM | GI50 (CNS cancer): 3.09 µM | CC50 (CNS cancer): > 100 µM | TGI (total growth inhibitory) (CNS cancer): 63.40 µM | GI50 (colon cancer): 3.39 µM | CC50 (colon cancer): 86.8 µM | TGI (total growth inhibitory) (colon cancer): 67.85 µM | GI50 (prostate cancer): 3.71 µM | CC50 (prostate cancer): > 100 µM | TGI (total growth inhibitory) (prostate cancer): c (Compounds showed values > 100µM) | GI50 (breast cancer): 2.81 µM | CC50 (breast cancer): > 100 µM | TGI (total growth inhibitory) (breast cancer): 38.49 µM | GI50 (UACC-62): 2.25 µM | GI50 (SF-268): 4.39 µM | GI50 (786-0): 4.5 µM | GI50 (renal cancer): 3.5 µM | CC50 (renal cancer): > 100 µM | TGI (total growth inhibitory) (renal cancer): 63.09 µM | GI50 (melanoma): 3.2 µM | CC50 (melanoma): 99.7 µM | TGI (total growth inhibitory) (melanoma): 28.33 µM | GI50 (ACHN [2]): 2.88 µM | GI50 (MDA-MB-435): 3.13 µM | GI50 (COLO 205): 2.02 µM | GI50 (SN12C): 2.59 µM | GI50 (ovarian cancer): 3.07 µM | CC50 (ovarian cancer): > 100 µM | TGI (total growth inhibitory) (ovarian cancer): 62.35 µM | GI50 (T-47D [3]): 3.35 µM | inhibition at 10 µM (T-47D [4]): 94.7% | inhibition at 10 µM (MDA-MB-468): 95.2% | inhibition at 10 µM (ACHN [5]): > 100% | inhibition at 10 µM (SK-MEL-2): 91.2% | inhibition at 10 µM (NCI-H322M): > 100% | inhibition at 10 µM (HOP-62): 84.9% | inhibition at 10 µM (HL-60(TB)): > 100% | GI50 (NSC lung cancer): 3.04 µM | CC50 (NSC lung cancer): > 100 µM | TGI (total growth inhibitory) (NSC lung cancer): 46.59 µM | GI50 (BT-549): 3.7 µM
